For seven compounds, IC100 results are on record in ChEMBL document CHEMBL1125996, “Avermectin analogs with a spacer between the aglycone and the disaccharide” (1991).

Bounds are passed on as bounds.

The test system of test [1] is Artemia salina. The test is described as follows: Compound was tested for its inhibitory activity using brine shrimp (Artemia salina) immobilization assay. In kind it is functional.
Test [2] has as its system Artemia salina. The test is described as follows: Compound was tested for its inhibitory activity using brine shrimp (Artemia salina) immobilization assay; highest level tested, showed <100% activity. In kind it is functional.

As to `CC[C@H](C)[C@H]1O[C@]2(CC[C@@H]1C)C[C@@H]1C[C@@H](C/C=C(\C)[C@@H](OCOCCO[C@H]3C[C@H](OC)[C@@H](O[C@H]4C[C@H](OC)[C@@H](O)[C@H](C)O4)[C@H](C)O3)[C@@H](C)/C=C/C=C3\CO[C@@H]4[C@H](O)C(C)=C[C@@H](C(=O)O1)[C@]34O)O2`, the IC100 in the test with Artemia salina [1] came out at 27800 ng/mL.

For the compound `CC[C@H](C)[C@H]1O[C@]2(CC[C@@H]1C)C[C@@H]1C[C@@H](C/C=C(\C)[C@@H](OCOCCO[C@@H]3C[C@H](OC)[C@@H](O[C@H]4C[C@H](OC)[C@@H](O)[C@H](C)O4)[C@H](C)O3)[C@@H](C)/C=C/C=C3\CO[C@@H]4[C@H](O)C(C)=C[C@@H](C(=O)O1)[C@]34O)O2`, the IC100 in the test on Artemia salina [1] was 27800 ng/mL.

Regarding `CC[C@H](C)[C@H]1O[C@]2(CC[C@@H]1C)C[C@@H]1C[C@@H](C/C=C(\C)[C@@H](OCCO[C@H]3C[C@H](OC)[C@@H](O[C@H]4C[C@H](OC)[C@@H](O)[C@H](C)O4)[C@H](C)O3)[C@@H](C)/C=C/C=C3\CO[C@@H]4[C@H](O)C(C)=C[C@@H](C(=O)O1)[C@]34O)O2`, in the test on Artemia salina [1], the IC100 turned out to be 1730 ng/mL.

As for `CC[C@H](C)[C@H]1O[C@]2(CC[C@@H]1C)C[C@@H]1C[C@@H](C/C=C(\C)[C@@H](OC(=O)OCCO[C@@H]3C[C@H](OC)[C@@H](O[C@H]4C[C@H](OC)[C@@H](O)[C@H](C)O4)[C@H](C)O3)[C@@H](C)/C=C/C=C3\CO[C@@H]4[C@H](O)C(C)=C[C@@H](C(=O)O1)[C@]34O)O2`, the IC100 in the test with Artemia salina [1] stood at 41650 ng/mL.

As to `CC[C@H](C)[C@H]1O[C@]2(CC[C@@H]1C)C[C@@H]1C[C@@H](C/C=C(\C)[C@@H](OC(=O)OCCO[C@H]3C[C@H](OC)[C@@H](O[C@H]4C[C@H](OC)[C@@H](O)[C@H](C)O4)[C@H](C)O3)[C@@H](C)/C=C/C=C3\CO[C@@H]4[C@H](O)C(C)=C[C@@H](C(=O)O1)[C@]34O)O2`, the IC100 in the test with Artemia salina [2] is >55500 ng/mL.

For `CC[C@H](C)[C@H]1O[C@]2(CC[C@@H]1C)C[C@@H]1C[C@@H](C/C=C(\C)[C@@H](OCCO[C@@H]3C[C@H](OC)[C@@H](O[C@H]4C[C@H](OC)[C@@H](O)[C@H](C)O4)[C@H](C)O3)[C@@H](C)/C=C/C=C3\CO[C@@H]4[C@H](O)C(C)=C[C@@H](C(=O)O1)[C@]34O)O2`, the IC100 with Artemia salina [1] is 1730 ng/mL.

For the compound `CC[C@H](C)[C@H]1O[C@]2(C=C[C@@H]1C)C[C@@H]1C[C@@H](C/C=C(\C)[C@@H](O[C@H]3C[C@H](OC)[C@@H](O[C@H]4C[C@H](OC)[C@@H](O)[C@H](C)O4)[C@H](C)O3)[C@@H](C)/C=C/C=C3\CO[C@@H]4[C@H](O)C(C)=C[C@@H](C(=O)O1)[C@]34O)O2` [ABAMECTIN COMPONENT B1A], in the test on Artemia salina [1], the IC100 is 430 ng/mL.
